Converted amounts (≈) assume the structure as drawn. Values belong to the compound of their own block, whether it stands above or below them.
Columns and labels:
[1] = test system: tumor growth; assay: MTT anticancer activity of Y, X and hydrolysis products (FIG. 4C); assay type: cell-based
Experimental: (§1) MTT Assay. The procedure for MTT assay followed the method described by Carmichael et al. (1987) with modifications. The cells were seeded into a 96-well plate at concentration of 10,000/well for HTB-9, HeLa, H460, HCT116, T98G and OVCAR-3), 15,000/well for DU145, MCF-7, HepG2 and U2OS), and 40,000/well for K562 for 24 hours before drug-treatment. The cells were then exposed to the drugs for 48 hours (72 hours for HepG2 and U2OS, and 96 hours for MCF-7). After the drug-treatment, MTT (0.5 mg/mL) was added to cultures and incubated for an hour. The formazan (product of the reduction of tetrazolium by viable cells) formed and was dissolved with DMSO and the O.D. at 490 nm, and was measured by an ELISA reader. The MTT level of the cells before drug-treatment was also measured (T0). The % cell-growth (% G) is calculated as: % G=(TD−T0/TC−T0)×100(1), where TC or TD represents O.D. readings of control or drug-treated cells. When T0>TD, then the cytotoxicity (LC) expressed as % of the control is calculated as: % LC=(TD−T0/T0)×100(2).
(A) Alkaline Hydrolysis of Xanifolia-Y: 20 mg of Xanifolia-Y was dissolved in 0.5 mL of 1M NaOH. The solution was incubated in an 80° C. water bath for 4 hours. It was cooled to room temperature before being neutralized with 0.5 mL 1 N HCl (adjusted pH to about 3). The mixture was extracted with 2 mL 1-butanol 3 times. The butanol fractions were collected and lyophilized. The hydrolyzed saponin was further purified with HPLC in a C-18 column eluted with 25% acetonitrile.
(B) Acid Hydrolysis of Xanifolia-Y: 15 mg Xanifolia-Y was dissolved in 1 mL of Methanol. 1 mL of 2N HCl was then added. The mixture was refluxed in an 80° C. water bath for 5 hours. The solution was then neutralized by adding 2 mL of 1N NaOH (to a final pH 3-4). The aglycone was then extracted with ethylacetate 3 mL×3. The extracts were collected and pooled. Further isolation of aglycone (sugar-removed Xanifolia-Y) was achieved by HPLC with isocratic elution of 80% acetonitrile.

[2] = test system: K562 cells membrane; assay: EM study of membrane structure; assay type: cell-based, human; details: 20 uM, 60 min
From the text: Xanifolia-Y has a potent hemolytic activity in red blood cells (FIG. 27). To study the effect of Xanifolia-Y on membrane structure, the morphology of cell membrane treated with Xanifolia-Y was examined with EM. […] Solvent DMSO and AKOH-Y (a derivative of Xanifolia-Y without the angeloyl group and it has no activity) served as controls. Cells were negative stained with 1% UAc and subsequently examined with EM.

[3] = test system: Fibronectin secretion from liver HepG2 cells; assay: Fibronectin secretion (Western blot), HepG2 cells; assay type: cell-based, human
[4] = test system: human red blood cells; assay: Hemolytic activity; assay type: cell-based; details: FIG. 3D
Experimental: Methods: • Human whole blood was obtained from the Houston Gulf Coast Blood Center. • Red blood cells were isolated by the following method: Human blood (in EDTA) was diluted 1:1 with PBS, underlay with 4 mL of Histopaque-1077 (SIGMA) and was centrifuged at 400 g for 30 min. • Red blood cells (RBC) were collected and washed three times with PBS. • 10% suspensions of RBC were prepared with PBS before use. • 50 μL of RBC suspension was added to 2 mL of saponins with different concentration. • The suspension was mixed by vortexing then left to sit at room temperature for 60 minutes. • The suspension was centrifuged at 3000 rpm for 5 min. Absorbance of the supernatant was measured at 540 nm.

[5] = test system: Fibronectin secretion from ES2 cells; assay: Fibronectin secretion (Western blot), ES2 cells; assay type: cell-based, human; details: for % inhibition of Fibronectin secretion: ES2 cells
Experimental: Inhibition of Fibronectin secretion is physiological and the determination of its quantity is based on the following criteria: • 1. Fibronectin is secreted from viable cells. Only cell with over 85% viable cells after drug-treatment are employed in these experiments. The viable cells were determined by MTT assay. • 2. For comparison, the immuno-band intensity from each samples are normalized with cell mass. The cell mass was determined by the MTT assay and is assigned as a MTT unit for each cell sample.
Cells: ES2 cells were grew in T-25 flask with RPMI 1640 medium over night before drug-treatment. Drug-treatment: cells cultures were replaced with fresh RPMI medium with Xanifolia-Y (10 ug/ml final concentration) or DMSO (as control) at 0 hour. At 1, 2, 4, 8 and 24 hour, aliquot of culture medium was taken out for Fibronectin determination. Fibronectin was determined by Western blot with monoclonal antibody (SIGMA) specific to human Fibronectin only.
Drug-treatment: cells cultures were replaced with fresh RPMI medium containing Xanifolia-Y (10 ug/ml final concentration) or DMSO (as control) at 0 hour. At 4 hours (A) or 8 hour (B), culture medium was replaced with fresh culture medium without drug. At 2, 4, 8 and 24 hour, aliquot of culture medium was taken out for Fibronectin determination. Fibronectin (FN) was determined by Western blot with monoclonal antibody (SIGMA) specific only to human Fibronectin.
(§2) Drug-treatment: cells cultures were replaced with fresh RPMI medium containing Xanifolia-Y (10 ug/ml final concentration) or DMSO (as control) at 0 hour. At 2, and 18 hour, aliquot of culture medium was taken out for Fibronectin determination (Western blot method). Cell viability at 18 hours was determined by MTT assay. Cultures were replaced with RPMI medium with MTT and incubated for an hour. The formation of formazan was dissolved in DMSO and OD at 570 nm was measured.
Cells and Drug-treatment: same as previous experiments. After 7 or 24 hours, aliquot of culture medium was taken out for Fibronectin determination (Western blot method). Cell viability at 24 hours was determined by MTT assay.
Cells: ES2 cells were grew in RPMI 1640 medium over night before drug-treatment. Drug-treatment: cells cultures were replaced with fresh RPMI medium containing DMSO (as control) [D]; Xanifolia-Y (10 ug/ml) [Y]; or Paclitaxel 10 or 50 ng/ml [T10, ro T50]. After 24 hours, aliquot of culture medium was taken out for Fibronectin determination (Western blot method). Cell viability at 24 hours was determined by MTT assay.
The amount of Fibronectin secreted by cells into medium was determined by Western blot assay. The amount of Fibronectin secreted per cells basis was determined by dividing the Western-band intensity with the MTT unit.
Western Blot: Spent culture medium (0.6 ml) was mixed with SDS sample buffer (0.2 ml), boiled for 3 minutes before loading to SDS gel. Samples (60 ul/lane) were applied to a 6% SDS gel and electrophoresis was conducted with 100 volts for 2 hours. Protein was transferred to a nitrocellulose paper electrophoretically (30 min at 100 volts). The Western blot was incubated with the first antibody (mouse anti-FN, specific to human FN, SIGMA F0916) and second antibody (Anti-mouse IgG AP conjugated, Promega S3721). The immunobands were developed with BCIP/NBT color development system (Promega S3771).

[6] = test system: (Breast)MCF7; assay: MTT assay MCF7; assay type: cell-based, human
Experimental: (§3) Cells. Human cancer cell lines were obtained from American Type Culture Collection: HTB-9 (bladder), HeLa-S3 (cervix), DU145 (prostate), H460 (lung), MCF-7 (breast), K562 (leukocytes), HCT116 (colon), HepG2 (liver), U2OS (bone), T98G (brain), SK-MEL-5 (Skin) and OVCAR-3 (ovary). The cells were grown in following culture media: HeLa-53, DU145, MCF-7, Hep-G2 and T98G are in MEN (Earle's salts); HTB-9, H460, K562 and OVCAR-3 in RPMI-1640; HCT-116 and U2OS in McCoy-5A. They are supplemented with 10% fetal calf serum, glutamine and antibiotics, and incubated in an incubator with 5% CO2 humidified at 37° C.
(§4) MTT Assay. The procedure for MTT assay followed the method described by Carmichael et al. (1987) with modifications. […] The formazan (product of the reduction of tetrazolium by viable cells) formed and was dissolved with DMSO and the O.D. at 490 nm, and was measured by an ELISA reader. The MTT level of the cells before drug-treatment was also measured (T0). The % cell-growth (% G) is calculated as: % G=(TD−T0/TC−T0)×100(1), where TC or TD represents O.D. readings of control or drug-treated cells. When T0>TD, then the cytotoxicity (LC) expressed as % of the control is calculated as: % LC=(TD−T0/T0)×100(2).

[7] = test system: Fibronectin secretion from brain glioblastoma T98G cells; assay: Fibronectin secretion (Western blot), T98G cells; assay type: cell-based, human
[8] = test system: Fibronectin secretion from skin SK-Mel-5 cells; assay: Fibronectin secretion (Western blot), SK-MEL-5 cells; assay type: cell-based, human
[9] = test system: (Skin) SK-MELS; assay: MTT assay SK-MEL-5; assay type: cell-based, human
Experimental: as §3, §4

[10] = test system: (Prostate) DU145; assay: MTT assay DU145; assay type: cell-based, human
Experimental: as §3, §4

[11] = test system: Fibronectin secretion from lung carcinoma cells (H460); assay: Fibronectin secretion (Western blot), H460 cells; assay type: cell-based, human
[12] = test system: (bladder)TB9 cells / HTB-9; assay: MTT assay bladder cells; assay type: cell-based, human; details: (bladder)TB9 cells
Experimental: as §3, §1

[13] = test system: Fibronectin secretion from bladder carcinoma cells (HTB-9); assay: Fibronectin secretion (Western blot), HTB-9 cells; assay type: cell-based, human; details: 10 ug/ml
[14] = test system: (Liver) HepG2; assay: MTT assay HepG2; assay type: cell-based, human
Experimental: as §3, §4

[15] = test system: ES2(ovarian) cells; assay: MTT assay ES2; assay type: cell-based, human; details: ES2 cells
Experimental: as §1
Methods: ES2 cells were exposed to (i) Xanifolia-Y with concentrations of 40, 20, 10, 5, 2.5, and 1.25 ug/ml; or (ii) Paclitaxel with concentrations of […]; or (iii) Combined Xanifolia-Y and Paclitaxel with concentrations of each drug in same order (for example, 40 ug/ml Y plus 10 ng/ml T; 20 ug/ml Y plus 5 ng/ml T, etc. please see FIG. 28). Cells growth under these conditions was determined by the MTT assay.
as §2

[16] = test system: ovarian cancer cells; assay: MTT assay, growth of ovarian cancer cells (FIG. 3A, 3B); assay type: cell-based; details: Homo sapiens, read-out: IC50, inhibiting growth of ovarian cancer cells
Experimental: as §3, §4

SMILES: CC1(C)CC2C3=CCC4[C@@]5(C)CC[C@H](O[C@@H]6OC(C(=O)O)[C@@H](O)[C@@H](O[C@@H]7O[C@@H](CO)[C@@H](O)C7O)C6O[C@@H]6OC(CO)[C@H](O)[C@@H](O)C6O)C(C)(C)C5CC[C@@]4(C)[C@]3(C)[C@@H](O)[C@@H](O)[C@@]2(CO)[C@@H](O)[C@@H]1O (some centres unmarked) [AKOH-Y]
anticancer activity after alkaline hydrolysis [1]: lost anticancer activity
MTT activities of hydrolysed products of compound Y ([1]; FIG. 4C, 4D): lost MTT activities
anticancer activity ([1]; FIG. 4C, even at 120 μg/ml): completely abolishes its anticancer activity
anticancer activity ([1]; even at 120 ug/ml): completely abolishes its anticancer activity
membrane morphology (EM): patches of pits [2]: not
inhibition effect on Fibronectin secretion ([3]; HepG2 cells, 80 ug/ml): Minimum or No effect
hemolytic activity of hydrolysed products of compound Y [4]: destroyed the hemolytic activity
% inhibition of Fibronectin secretion ([5]; 80 ug/ml): no effect
% inhibition of Fibronectin secretion ([5]; 80 ug/ml, listed as AKOH): no effect

IC50 [6]: 11 µg/mL (≈ 7.52 µM)
IC50 [9]: 25 µg/mL (≈ 17.1 µM)
IC50 [10]: 7.6 µg/mL (≈ 5.19 µM)
IC50 [14]: 6.5 µg/mL (≈ 4.44 µM)
SMILES: CC=C(C)C(=O)OC1C(OC(=O)C(C)=CC)C23C(O)CC4(C)C5(C)CCC6C(C)(C)C(OC7OC(C(=O)O)C(O)C(OC8OC(CO)C(O)C(O)C8OC8OC(C)C(O)C(O)C8OC8OC(C)C(O)C(O)C8O)C7OC7OC(CO)C(O)C(O)C7O)CCC6(C)C5CCC4(OC2O)C3CC1(C)C (centres unmarked) [Mb5]
% inhibition of Fibronectin secretion ([7]; 10 ug/ml): 33%
% inhibition of Fibronectin secretion ([8]; 10 ug/ml): 15%
% inhibition of Fibronectin secretion ([11]; H460 cells, 10 ug/ml): 25%
IC50 [12]: 6.5 µg/mL (≈ 4.44 µM)
% inhibition of Fibronectin secretion [13]: 28%
% inhibition of Fibronectin secretion ([3]; HepG2 cells, 10 ug/ml): 35%
IC50 [15]: 6.5 µg/mL (≈ 4.44 µM)
% inhibition of Fibronectin secretion ([5]; 10 ug/ml): 35%

IC50 ([1]; FIG. 4C, read-out: IC50, inhibits tumor growth / anticancer activity): 6 µg/mL (≈ 5.26 µM)
IC50 [16]: 30 µg/mL (≈ 26.3 µM)
SMILES: C/C=C(/C)C(=O)O[C@H]1[C@H](OC(C)=O)C(C)(C)CC2C3=CCC4[C@@]5(C)CC[C@H](O[C@@H]6OC(C(=O)OCCCC)[C@@H](O)C(O[C@@H]7O[C@@H](CO)C(O)C7O)C6O[C@@H]6OC(CO)[C@H](O)C(O)C6O)C(C)(C)C5CC[C@@]4(C)[C@]3(C)C[C@@H](O)[C@]21CO (stereo partly drawn) [X, 3-O-{[β-D-galactopyranosyl (1→2)]-[α-L-arabinofuranosyl (1→3)]-β-D-glucuronopyranosidebutyl ester}-21-O-acetyl-22-O-angeloyl-3β,16α,21β,22α,28-pentahydroxyolean-12-ene]
inhibition at 20 µg/mL ([7]; Homo sapiens, T98G, 20 ug/ml): 52%
inhibition at 20 µg/mL ([8]; Homo sapiens, 20 ug/ml): 15%
inhibition at 20 µg/mL ([11]; Homo sapiens, NCI-H460, H460 cells, 20 ug/ml): 37%
inhibition at 10 µg/mL ([13]; Homo sapiens): 38%
inhibition at 10 µg/mL ([3]; Homo sapiens, HepG2, HepG2 cells, 10 ug/ml): 42%
inhibition at 10 µg/mL ([5]; Homo sapiens, ES-2, ES2 cells, 10 ug/ml): 39%
